Measurements published in patent publication US8192962B2, “Processes for detecting toxic substances” (Daikin Industries, Ltd., priority 2001, dated 2012).

System: Detoxification protein genes
Experiment: DNA chip mRNA expression in yeast, detoxification protein genes (Table 8)
Assay type: cell-based, Saccharomyces cerevisiae S288C
Procedure, shortened: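 Measured as treated-to-untreated fluorescence ratio on a full-genome yeast DNA chip. Cells (S288C, YPD, 25° C.) were exposed in log phase for two hours to one chemical, dosed to curb growth without killing.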

CN(C)C(=S)SSC(=S)N(C)C [(10), Tetramethylthiuram disulfide]
The level of expressed mRNA in the presence of chemical substance/The level of expressed mRNA in the absence of chemical substance (yeast gene YBL064C): 3.8
The level of expressed mRNA in the presence of chemical substance/The level of expressed mRNA in the absence of chemical substance (yeast gene YBR008C): 21.1
The level of expressed mRNA in the presence of chemical substance/The level of expressed mRNA in the absence of chemical substance (yeast gene YBR145W): 1.1
The level of expressed mRNA in the presence of chemical substance/The level of expressed mRNA in the absence of chemical substance (yeast gene YBR244W): 3.0
The level of expressed mRNA in the presence of chemical substance/The level of expressed mRNA in the absence of chemical substance (yeast gene YBR293W): 2.4
The level of expressed mRNA in the presence of chemical substance/The level of expressed mRNA in the absence of chemical substance (yeast gene YCL035C): 2.3
The level of expressed mRNA in the presence of chemical substance/The level of expressed mRNA in the absence of chemical substance (yeast gene YCL069W): 6.9
The level of expressed mRNA in the presence of chemical substance/The level of expressed mRNA in the absence of chemical substance (yeast gene YCR083W): 1.8
The level of expressed mRNA in the presence of chemical substance/The level of expressed mRNA in the absence of chemical substance (yeast gene YDL100C): 3.2
The level of expressed mRNA in the presence of chemical substance/The level of expressed mRNA in the absence of chemical substance (yeast gene YDL168W): 4.7
The level of expressed mRNA in the presence of chemical substance/The level of expressed mRNA in the absence of chemical substance (yeast gene YDR256C): 2.0
The level of expressed mRNA in the presence of chemical substance/The level of expressed mRNA in the absence of chemical substance (yeast gene YDR453C): 6.1
The level of expressed mRNA in the presence of chemical substance/The level of expressed mRNA in the absence of chemical substance (yeast gene YDR513W): 3.1
The level of expressed mRNA in the presence of chemical substance/The level of expressed mRNA in the absence of chemical substance (yeast gene YDR538W): 0.8
The level of expressed mRNA in the presence of chemical substance/The level of expressed mRNA in the absence of chemical substance (yeast gene YEL027W): 1.1
The level of expressed mRNA in the presence of chemical substance/The level of expressed mRNA in the absence of chemical substance (yeast gene YEL065W): 4.9
The level of expressed mRNA in the presence of chemical substance/The level of expressed mRNA in the absence of chemical substance (yeast gene YER185W): 1.2
The level of expressed mRNA in the presence of chemical substance/The level of expressed mRNA in the absence of chemical substance (yeast gene YFL050C): 1.6
The level of expressed mRNA in the presence of chemical substance/The level of expressed mRNA in the absence of chemical substance (yeast gene YGL013C): 1.5
The level of expressed mRNA in the presence of chemical substance/The level of expressed mRNA in the absence of chemical substance (yeast gene YGL254W): 1.8
The level of expressed mRNA in the presence of chemical substance/The level of expressed mRNA in the absence of chemical substance (yeast gene YGR088W): 3.2
The level of expressed mRNA in the presence of chemical substance/The level of expressed mRNA in the absence of chemical substance (yeast gene YGR138C): 1.0
The level of expressed mRNA in the presence of chemical substance/The level of expressed mRNA in the absence of chemical substance (yeast gene YGR197C): 3.2
The level of expressed mRNA in the presence of chemical substance/The level of expressed mRNA in the absence of chemical substance (yeast gene YGR209C): 6.3
The level of expressed mRNA in the presence of chemical substance/The level of expressed mRNA in the absence of chemical substance (yeast gene YGR224W): 0.9
The level of expressed mRNA in the presence of chemical substance/The level of expressed mRNA in the absence of chemical substance (yeast gene YHL040C): 11.3
The level of expressed mRNA in the presence of chemical substance/The level of expressed mRNA in the absence of chemical substance (yeast gene YHL047C): 11.9
The level of expressed mRNA in the presence of chemical substance/The level of expressed mRNA in the absence of chemical substance (yeast gene YHR008C): 2.4
The level of expressed mRNA in the presence of chemical substance/The level of expressed mRNA in the absence of chemical substance (yeast gene YHR048W): 2.7
The level of expressed mRNA in the presence of chemical substance/The level of expressed mRNA in the absence of chemical substance (yeast gene YHR053C): 2.9
The level of expressed mRNA in the presence of chemical substance/The level of expressed mRNA in the absence of chemical substance (yeast gene YHR055C): 3.3
The level of expressed mRNA in the presence of chemical substance/The level of expressed mRNA in the absence of chemical substance (yeast gene YIR002C): 1.4
The level of expressed mRNA in the presence of chemical substance/The level of expressed mRNA in the absence of chemical substance (yeast gene YIR038C): 4.5
The level of expressed mRNA in the presence of chemical substance/The level of expressed mRNA in the absence of chemical substance (yeast gene YJL101C): 3.6
The level of expressed mRNA in the presence of chemical substance/The level of expressed mRNA in the absence of chemical substance (yeast gene YJR104C): 2.8
The level of expressed mRNA in the presence of chemical substance/The level of expressed mRNA in the absence of chemical substance (yeast gene YKL026C): 3.0
The level of expressed mRNA in the presence of chemical substance/The level of expressed mRNA in the absence of chemical substance (yeast gene YKL064W): 1.6
The level of expressed mRNA in the presence of chemical substance/The level of expressed mRNA in the absence of chemical substance (yeast gene YKR066C): 2.4
The level of expressed mRNA in the presence of chemical substance/The level of expressed mRNA in the absence of chemical substance (yeast gene YKR105C): 5.2
The level of expressed mRNA in the presence of chemical substance/The level of expressed mRNA in the absence of chemical substance (yeast gene YKR106W): 7.4
The level of expressed mRNA in the presence of chemical substance/The level of expressed mRNA in the absence of chemical substance (yeast gene YLL028W): 2.3
The level of expressed mRNA in the presence of chemical substance/The level of expressed mRNA in the absence of chemical substance (yeast gene YLL057C): 2.9
The level of expressed mRNA in the presence of chemical substance/The level of expressed mRNA in the absence of chemical substance (yeast gene YLL060C): 23.2
The level of expressed mRNA in the presence of chemical substance/The level of expressed mRNA in the absence of chemical substance (yeast gene YLR043C): 2.5
The level of expressed mRNA in the presence of chemical substance/The level of expressed mRNA in the absence of chemical substance (yeast gene YLR046C): 1.4
The level of expressed mRNA in the presence of chemical substance/The level of expressed mRNA in the absence of chemical substance (yeast gene YML028W): 1.8
The level of expressed mRNA in the presence of chemical substance/The level of expressed mRNA in the absence of chemical substance (yeast gene YML116W): 3.1
The level of expressed mRNA in the presence of chemical substance/The level of expressed mRNA in the absence of chemical substance (yeast gene YMR015C): 0.3
The level of expressed mRNA in the presence of chemical substance/The level of expressed mRNA in the absence of chemical substance (yeast gene YMR038C): 2.6
The level of expressed mRNA in the presence of chemical substance/The level of expressed mRNA in the absence of chemical substance (yeast gene YNL239W): 6.0
The level of expressed mRNA in the presence of chemical substance/The level of expressed mRNA in the absence of chemical substance (yeast gene YNL241C): 7.4
The level of expressed mRNA in the presence of chemical substance/The level of expressed mRNA in the absence of chemical substance (yeast gene YNL259C): 2.1
The level of expressed mRNA in the presence of chemical substance/The level of expressed mRNA in the absence of chemical substance (yeast gene YOL158C): 6.1
The level of expressed mRNA in the presence of chemical substance/The level of expressed mRNA in the absence of chemical substance (yeast gene YOR031W): 1.3
The level of expressed mRNA in the presence of chemical substance/The level of expressed mRNA in the absence of chemical substance (yeast gene YOR153W): 1.2
The level of expressed mRNA in the presence of chemical substance/The level of expressed mRNA in the absence of chemical substance (yeast gene YOR247W): 0.4
